Where “and” joins values, the source holds several entries; their conditions need not be identical. Identical values can stand only once.
Tests used:
[1] = Log P of Compound A; assay type: physicochemical; conditions: approximate value
[2] = tested on: NCI-H69 xenograft model (small cell lung cancer); test: Efficacy in NCI-H69 xenograft model: tumor volumes and tumor growth inhibition; assay type: in vivo, mice
From the text: Efficacies of Compound A alone or formulated in nanoparticles were studied with NCI-H69 xenograft model (small cell lung cancer).

[3] = in vivo; conditions: rat, 1 mg/kg
Description: In addition, rat plasma concentrations of Compound A and Compound A in NP04 formulation were measured over time.

[4] = Compound A 25 mg/kg days 1 and 8, Day 5
[5] = Compound A 25 mg/kg days 1 and 8, Day 8
[6] = Compound A 25 mg/kg days 1 and 8, Day 16
[7] = Compound A 25 mg/kg days 1 and 8, Day 19
[8] = Compound A 50 mg/kg days 1 and 8, Day 5, 50 mg/kg
[9] = Compound A 50 mg/kg days 1 and 8, Day 8, 50 mg/kg
[10] = Compound A 50 mg/kg days 1 and 8, Day 11, 50 mg/kg
[11] = Compound A 50 mg/kg days 1 and 8, Day 16, 50 mg/kg
[12] = Compound A 50 mg/kg days 1 and 8, Day 19, 50 mg/kg
[13] = Compound A 50 mg/kg days 1 and 8, Day 22, 50 mg/kg
[14] = Compound A 150 mg/kg days 1 and 8, Day 5, 150 mg/kg
[15] = Compound A 150 mg/kg days 1 and 8, Day 8, 150 mg/kg
[16] = Compound A 150 mg/kg days 1 and 8, Day 11
[17] = Compound A 150 mg/kg days 1 and 8, Day 11, 150 mg/kg
[18] = Compound A 150 mg/kg days 1 and 8, Day 16, 150 mg/kg
[19] = Compound A 150 mg/kg days 1 and 8, Day 19, 150 mg/kg
[20] = Compound A 150 mg/kg days 1 and 8, Day 22, 150 mg/kg

For `CCc1c2c(nc3ccc(OC(=O)N4CCC(CCn5ccc6cc(-n7c(O)nnc7-c7cc(C(C)C)c(O)cc7O)ccc65)CC4)cc13)-c1cc3c(c(=O)n1C2)COC(=O)[C@]3(O)CC` [Compound A, (S)-4,11-diethyl-4-hydroxy-3,14-dioxo-3,4,12,14-tetrahydro-1H-pyrano[3′,4′:6,7]indolizino[1,2-b]quinolin-9-yl 4-(2-(5-(3-(2,4-dihydroxy-5-isopropylphenyl)-5-hydroxy-4H-1,2,4-triazol-4-yl)-1H-indol-1-yl)ethyl)piperidine-1-carboxylate], the logP [1] was ~6.7, the “TV Mean” value ([2]; Compound A 25 mg/kg days 1 and 8, Day 1) was 273.4 mm3 and the TGI % [2, 4] was 2.8%. For the same compound, the “TV Mean” value [2, 4] was 390.6 mm3, the TGI % [2, 5] was 24.9% and the “TV Mean” value [2, 5] was 423.8 mm3. For the same compound, the “TV Mean” value ([2]; Compound A 25 mg/kg days 1 and 8, Day 11) was 383.2 mm3, the TGI % ([2]; Compound A 25 mg/kg days 1 and 8, Day 11, 25 mg/kg) was 47% and the TGI % [2, 6] was 69.3%. The “TV Mean” value [2, 6] was 345.4 mm3, the TGI % [2, 7] was 72.2% and the “TV Mean” value [2, 7] was 387.4 mm3. For the same compound, the “TV Mean” value ([2]; Compound A 25 mg/kg days 1 and 8, Day 22) was 510.4 mm3, the TGI % ([2]; Compound A 25 mg/kg days 1 and 8, Day 22, 25 mg/kg) was 70% and the “TV Mean” value ([2]; Compound A 25 mg/kg days 1 and 8, Day 26) was 654.4 mm3. For the same compound, the “TV Mean” value ([2]; Compound A 25 mg/kg days 1 and 8, Day 31) was 866.4 mm3, the “TV Mean” value ([2]; Compound A 50 mg/kg days 1 and 8, Day 1) was 273.3 mm3 and the TV individual animal ([2]; Compound A 50 mg/kg days 1 and 8, Day 1, 50 mg/kg) was 222 mm3 and 255 mm3. The “TV Mean” value ([2]; Compound A 50 mg/kg days 1 and 8, Day 5) was 360.1 mm3, the TGI % [2, 8] was 10.42% and 10.4% and the TV individual animal [2, 8] was 293 mm3. The “TV Mean” value ([2]; Compound A 50 mg/kg days 1 and 8, Day 8) was 377.9 mm3, the TGI % [2, 9] was 33.02% and 33% and the TV individual animal [2, 9] was 336 mm3. The “TV Mean” value ([2]; Compound A 50 mg/kg days 1 and 8, Day 11) was 267.8 mm3, the TGI % [2, 10] was 62.98% and 63% and the TV individual animal [2, 10] was 202 mm3. The “TV Mean” value ([2]; Compound A 50 mg/kg days 1 and 8, Day 16) was 166.4 mm3, the TGI % [2, 11] was 85.23% and 85.2% and the TV individual animal [2, 11] was 136 mm3. The “TV Mean” value ([2]; Compound A 50 mg/kg days 1 and 8, Day 19) was 116.6 mm3, the TGI % [2, 12] was 91.64% and 91.6% and the TV individual animal [2, 12] was 103 mm3. For the same compound, the “TV Mean” value ([2]; Compound A 50 mg/kg days 1 and 8, Day 22) was 125.6 mm3, the TGI % [2, 13] was 92.63% and 92.6% and the TV individual animal [2, 13] was 91 mm3. The “TV Mean” value ([2]; Compound A 50 mg/kg days 1 and 8, Day 26) was 165.7 mm3, the TV individual animal ([2]; Compound A 50 mg/kg days 1 and 8, Day 26, 50 mg/kg) was 116 mm3 and the “TV Mean” value ([2]; Compound A 50 mg/kg days 1 and 8, Day 31) was 318.9 mm3. The TV individual animal ([2]; Compound A 50 mg/kg days 1 and 8, Day 31, 50 mg/kg) was 256 mm3, the “TV Mean” value ([2]; Compound A 150 mg/kg days 1 and 8, Day 1) was 273.6 mm^3 and the TV individual animal ([2]; Compound A 150 mg/kg days 1 and 8, Day 1, 150 mg/kg) was 218 mm^3 and 266 mm^3 and 269 mm^3 and 295 mm^3 and 302 mm^3 and 335 mm^3 and 339 mm^3 and 353 mm^3 and 144 mm^3 and 215 mm^3. For the same compound, the “TV Mean” value ([2]; Compound A 150 mg/kg days 1 and 8, Day 5) was 353 mm^3, the TGI % [2, 14] was 12.19% and 12.9% and the TV individual animal [2, 14] was 291 mm^3 and 370 mm^3 and 363 mm^3 and 417 mm^3 and 376 mm^3 and 367 mm^3 and 406 mm^3 and 568 mm^3 and 147 mm^3 and 225 mm^3. The “TV Mean” value ([2]; Compound A 150 mg/kg days 1 and 8, Day 8) was 343.8 mm^3, the TGI % [2, 15] was 39.06% and 39.1% and the TV individual animal [2, 15] was 275 mm^3 and 362 mm^3 and 281 mm^3 and 413 mm^3 and 354 mm^3 and 393 mm^3 and 397 mm^3 and 595 mm^3 and 168 mm^3 and 200 mm^3. For the same compound, the TGI % [2, 16] was 65.44%, the “TV Mean” value [2, 16] was 250 mm^3 and the TGI % [2, 17] was 65.4%. The TV individual animal [2, 17] was 189 mm^3 and 236 mm^3 and 217 mm^3 and 318 mm^3 and 264 mm^3 and 322 mm^3 and 285 mm^3 and 436 mm^3 and 99 mm^3 and 134 mm^3, the “TV Mean” value ([2]; Compound A 150 mg/kg days 1 and 8, Day 16) was 109.7 mm^3 and the TGI % [2, 18] was 90.26% and 90.3%. For the same compound, the TV individual animal [2, 18] was 89 mm^3 and 108 mm^3 and 90 mm^3 and 132 mm^3 and 123 mm^3 and 138 mm^3 and 135 mm^3 and 173 mm^3 and 46 mm^3 and 63 mm^3, the “TV Mean” value ([2]; Compound A 150 mg/kg days 1 and 8, Day 19) was 77.9 mm^3 and the TGI % [2, 19] was 94.41% and 94.4%. The TV individual animal [2, 19] was 55 mm^3 and 100 mm^3 and 85 mm^3 and 95 mm^3 and 74 mm^3 and 121 mm^3 and 39 mm^3 and 135 mm^3 and 33 mm^3 and 42 mm^3, the “TV Mean” value ([2]; Compound A 150 mg/kg days 1 and 8, Day 22) was 63.5 mm^3 and the TGI % [2, 20] was 96.27% and 96.3%. For the same compound, the TV individual animal [2, 20] was 46 mm^3 and 64 mm^3 and 72 mm^3 and 85 mm^3 and 66 mm^3 and 89 mm^3 and 71 mm^3 and 68 mm^3 and 27 mm^3 and 47 mm^3, the “TV Mean” value ([2]; Compound A 150 mg/kg days 1 and 8, Day 26) was 51.8 mm^3 and the TV individual animal ([2]; Compound A 150 mg/kg days 1 and 8, Day 26, 150 mg/kg) was 45 mm^3 and 52 mm^3 and 68 mm^3 (2×) and 61 mm^3 and 83 mm^3 and 77 mm^3 and 41 mm^3 and 4 mm^3 and 19 mm^3. For the same compound, the “TV Mean” value ([2]; Compound A 150 mg/kg days 1 and 8, Day 31) was 13.5 mm^3, the TV individual animal ([2]; Compound A 150 mg/kg days 1 and 8, Day 31, 150 mg/kg) was 11 mm^3 and 17 mm^3 and 25 mm^3 and 6 mm^3 and 3 mm^3 and 44 mm^3 and 2 mm^3 and 27 mm^3 and 0 mm^3 (2×) and the AUC(0-inf) [3] was 3.93 µM·h. The AUC(0-t) [3] was 3.93 µM·h, the Cmax [3] was 11.8 µM and the Vd [3] was 0.0786 L/kg. It also gave a clearance [3] of 4.82 mL/min/kg and a half-life [3] of 59.1 min.

Source: patent US20200237746A1, “HSP90 TARGETED CONJUGATES AND PARTICLE FORMULATIONS THEREOF” (TARVEDA THERAPEUTICS, INC., priority 2017, published 2020)
